In the experiment the test system is aphids. The experiment in a line: Root systemicity of fipronil with polymers: wheat plants in vermiculite drenched, infested with aphids, aphid population counted. To be noted: 4 days after infestation, relative to plants not treated with fipronil. It is filed as in vivo, aphids on wheat plants. The procedure:
To test the root systemicity of fipronil with polymers according to the invention, wheat plants in vermiculite were drenched with 20 ml fipronil/polymer (1:1 wt) solutions in Hoagland solution/acetone mixtures (0.6 v % acetone). Two fipronil and polymer concentrations were used, 3 ppm and 6 ppm. As reference fipronil solutions in Hoagland solution/acetone mixtures without polymer were used. Hoagland solution consists of the following ingredients:
0.25 v % of 1M KNO3 solution in water, 0.1 v % of 1 M MgSO4 solution in water, 0.05 v % of 1M KH2PO4 solution in water, 0.25 v % 1M Ca(NO3)2) solution in water, 0.05 v % of a trace solution consisting of 2.86 g/l H3BO3, 1.81 g/l MnCl2*4H2O, 0.22 g/l ZnSO4*7H2O, 0.08 g/l CuSO4*5H2O, 0.016 g/l MoO3 in water, 0.075 v % Sequestrene 138 Fe consisting of 30 g/l sodium ferric ethylenediamine di-(o-hydroxyphenylacetate) in water, 99.225 v % water sterilized and pH adjusted to 6-6.5 with NaOH.
The plants were then infested with aphids. After 4 days the aphid population on the wheat plants was counted. The results of fipronil and fipronil with polymer are related to the aphid population on plants that had not been treated with fipronil.

SMILES strings stand for the structures.

For `N#Cc1nn(-c2c(Cl)cc(C(F)(F)F)cc2Cl)c(N)c1[S+]([O-])C(F)(F)F` (stereo not shown) [Reference A, fipronil], the Aphid population is, setting by setting: (Table 1, 3 ppm fipronil (and polymer, 1:1 wt)) 51%; (Table 1, 6 ppm fipronil (and polymer, 1:1 wt)) 23%; (Table 2, 3 ppm fipronil (and polymer, 1:1 wt)) 23%; (Table 2, 6 ppm fipronil (and polymer, 1:1 wt)) 12%.

Values taken from patent publication US20100204045A1, “Systemicity Enhancers” (BASF SE, priority 2007, published 2010).
